# Test results as given in patent US11980594B2, “Composition and method for treating a drug-resistant cancer” (NOVELWISE PHARMACEUTICAL CORPORATION, priority 2021, dated 2024).
# Tested on: P62 and LC3-II
# Test: Western blot of autophagy markers in CRC cells
# Format: cell-based, human
# Settings: HT29, HCT116 and RKO cells; BMX (5 and 10 μM) with or without 50 μM TMZ; FIG. 18A
# Description: Western blot analysis was used to examine the indicated protein expression levels under various concentrations of BMX (0-10 μM), and SAHA, VPA or PCI-34051 in the presence or absence of TMZ (50 μM) or OXP (5 μM) of the tested cell lines. SDS-PAGE and Western blot analysis was performed on lysates prepared as outlined previously. The specific primary antibodies against acetyl-histone H3 (Lys9/Lys14), acetyl-histone H4 (Lys8), P53, acetyl-p53 (Lys382), phospho-p53 (Ser15), P21, P16, MGMT, phosphor-H2AX (S139), E2F1, E2F3, Cleaved Caspase-3, Cleaved Caspase-8, Cleaved Caspase-7, Cleaved Caspase-9, PARP, Bax, Bcl-2, Bid, Bim, Bak, Puma, β-catenin, phospho-β-catenin(Ser/33/37/41), GSK3β, phospho-GSK3β (Ser 9), c-Myc, Cyclin D1, P62, LC3B, CD133, CD44, SOX-2 and HDAC8 were used for detection, and GAPDH, α-tubulin or β-actin was used as the internal control. After incubation with the primary antibodies, and then incubated with horseradish peroxidase (HRP)-conjugated secondary antibodies, the HRP signals were detected with a chemical HRP substrate. Signal of each target protein was visualized by incubation with an enhanced chemiluminescent reagent and exposure to X-ray film.
compound,measurement,value
"COc1ccc(COc2c(/C=C/C(=O)NO)ccc(OC)c2CC=C(C)C)cc1 [BMX, (E)-2-(4-Methoxybenzyloxy)-3-prenyl-4-methoxy-N-hydroxycinamide]",expression of P62 and LC3-II,concentration-dependent increase in the expression of P62 and LC3-II
